US5912230A, “Anti-fungal and anti-bacterial histatin-based peptides” (priority 1998, dated 1999)
Like-named read-outs stand apart in the source and are kept apart here. Where no end group is shown, it is not given here.

Key:
[1] = test system: Porphyromonas gingivalis strain A7A1-28; experiment: microdilution bacteriostatic assay (P. gingivalis growth inhibition); assay type: cell-based; conditions: for P. gingivalis: % increase in time to reach mid logphase growth (0.2 OD): 2 mM dose
Description: (a) The bacteria used in one investigation, Porphyromonas gingivalis strain A7A1-28, is a typical key pathogenic organism associated with destructive periodontal diseases. The bacteria were multiply subcultured in Enriched Todd Hewitt broth (ETHB, Difco Lab., Detroit, Mich.). Microorganisms were stored in the same broths containing 20% and 50% glycerol, at -20° C. and -70° C., respectively. These served as stock cultures from which all preparations originated.
Working stock cultures were maintained by weekly transfer to Brain Heart Infusion Anaerobic Sheep Blood Agar plates (BHIA, Becton Dickinson and Co., Cockeysville, Md.), and Trypticase Soy Anaerobic Sheep Blood Agar plates (TSA, Becton Dickinson and Co., Cockeysville, Md.). Plates were incubated for 3 to 4 days under strictly anaerobic conditions. For the bacteriostatic assay, bacteria were collected from plates, inoculated into the aforementioned broth and grown at 37° C., under strictly anaerobic conditions for 24 to 48 hours.
A modification of the typical microdilution assay (Rotilie et al., 1975) for the determination of minimal inhibitory concentration (MIC) of antimicrobial agents was utilized to investigate the bacteriostatic activity of the peptides. A standardized bacterial inoculum (P. gingivalis) was exposed to serially diluted antimicrobial peptides in an enriched broth medium that was suitable for the growth of anaerobic bacteria. The test was adapted for use in the 96-well microtiter plates. […] The modification introduced here was based on the spectrophotometric reading of the microtiter plate after incubation.
Microorganisms from cultures maintained in the aforementioned plates were inoculated into 5 ml of the above-mentioned broths and cultured overnight at 37° C. under strictly anaerobic conditions with continuous agitation on a minishaker (IKA-Labortechnik, Staufen i. Br., Germany). The bacteria were grown until reaching the late log phase and were then suspended in the same broths to an optical density (O.D.) of 0.1 at 560 nm. The peptides were diluted in 0.01M phosphate buffered saline (PBS), pH 7. Forty μl aliquots of peptide dilutions were added in each well of a U-bottom microtiter plate (Costar, Cambridge, Mass.) to give final concentrations of 2000, 1000, 500 and 250 μM. Twenty μl of bacterial inoculum was added to all the wells. Finally, 100 μl of the suitable broth were added to each well. The optical density of the wells of the microtiter plate was determined using a microplate reader set at 550 nm and the plate was then incubated under strictly anaerobic conditions for 24 hours. Controls were made by replacing the peptide dilutions with PBS alone. After the incubation, the mixtures in each well were mixed manually to resuspend sedimented bacteria and the plate was read again. The experiments were conducted twice every time. The biologic activity was calculated according to the formula:
100-[[(Fin ODexp-In ODexp)/(Fin ODctr-In ODctr)]×100]
In addition, the % increase in time to reach midlog phase growth was calculated.
The data presentation represent the means (±SEM) of at least 2 separate experiments.

Clostripain [2] = molecular target: T1, Clostripain (Hathewaya histolytica, UniProt P09870); experiment: clostripain assay (BAPNA hydrolysis); assay type: biochemical, Clostridium histolyticum
T1 construct: purchased Sigma Chemical Corp., St. Louis, Mo
Description: (§1) Clostripain from Clostridium histolyticum (Sigma Chemical Corp., St. Louis, Mo.) was dissolved in deionized water to a concentration of 1 mg/mL (300 units/mg) and activated with the addition of 10 mmol/L DTT. To measure its hydrolytic activity, clostripain (6 units) was added to […] Hepes buffer, pH 7.5, containing 80 gmol/L BAPNA (benzoyl-arginine-p-nitroanilide), together with 5.6 μmol/L of histatin peptide inhibitor. As controls, assays were performed in the absence of any histatin peptide inhibitor. The activity was monitored continuously at 405 nm using a Molecular Devices VMax microtitre plate reader. The activities were determined from the maximum rates of substrate hydrolysis. Assays were done in duplicate, and the means normalized to the controls.

Clostripain [3] = molecular target: T2, Clostripain (Hathewaya histolytica, UniProt P09870); experiment: clostripain assay (BAPNA hydrolysis); assay type: biochemical, Clostridium histolyticum; remark: listed apart in the source
T2 construct: purchased Sigma Chemical Corp., St. Louis, Mo
T2 sequence (P09870 whole entry, looked up): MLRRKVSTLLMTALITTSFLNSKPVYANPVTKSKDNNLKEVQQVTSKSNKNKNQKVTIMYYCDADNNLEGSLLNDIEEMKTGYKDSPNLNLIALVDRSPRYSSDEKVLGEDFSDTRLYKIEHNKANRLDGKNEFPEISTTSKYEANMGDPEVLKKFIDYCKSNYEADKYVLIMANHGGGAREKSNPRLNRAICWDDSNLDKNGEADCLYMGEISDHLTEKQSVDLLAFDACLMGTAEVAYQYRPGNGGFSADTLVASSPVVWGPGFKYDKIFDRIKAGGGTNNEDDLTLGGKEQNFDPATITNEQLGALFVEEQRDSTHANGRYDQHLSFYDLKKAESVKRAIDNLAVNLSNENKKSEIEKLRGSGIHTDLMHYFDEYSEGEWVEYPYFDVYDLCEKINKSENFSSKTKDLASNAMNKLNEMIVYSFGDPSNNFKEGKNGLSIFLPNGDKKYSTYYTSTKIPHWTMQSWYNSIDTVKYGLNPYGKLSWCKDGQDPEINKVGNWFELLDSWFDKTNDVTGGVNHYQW
Description: as §1

[4] = read-out: Clostripain: IC50 (μM) for inhibition of Clostripain

| Substance | P. gingivalis growth inhibition, in words [1] | IC50 (Clostripain [2]) [µM] | clostripain inhibition, in words (Clostripain [2]) | P. gingivalis: % increase in time to reach mid logphase growth (0.2 OD) [1] [%] | IC50 (Clostripain [2]; [4]) [µM] | clostripain inhibition, in words (Clostripain [3]) |
| --- | --- | --- | --- | --- | --- | --- |
| AKRHHGYKR [peptide 120] | P. gingivalis growth inhibition | > 50 | clostripain inhibition effects | – | – | – |
| AKRHHGYKRK [peptide 119] | P. gingivalis growth inhibition | > 50 | clostripain inhibition effects | – | – | – |
| AKRHHGYKRKF [peptide 118] | P. gingivalis growth inhibition | 45 | clostripain inhibition effects | – | – | – |
| AKRHHGYKRKFH [peptide 113] | P. gingivalis growth inhibition | – | clostripain inhibition effects | 34.95 | 25 | – |
| His 11: histatin 11 (SEQ ID NO: 11), subpeptide of peptide 113 (KRHHGYKR) | P. gingivalis growth inhibition | – | – | – | – | clostripain inhibition effects |
| KRHHGYKRKF [peptide 129] | P. gingivalis growth inhibition | – | clostripain inhibition effects | 15.4 | 19 | – |
| peptide 117: subpeptide of peptide 113 (SEQ ID NO: 19) (KRHHGYKRKFH) | P. gingivalis growth inhibition | – | – | – | – | clostripain inhibition effects |
